The record followed here is US20100143438A1, “BIOMOLECULES” (University of Strathclyde, priority 2006, published 2010).

In the experiment the test system is Fmoc-FRGD-PEGA surface tethered peptide (Fmoc-F↓RGD bond). Kind of experiment: Enzymatic hydrolysis of PEGA surface tethered peptides analysed by HPLC. Type of experiment: biochemical. The method, then:
Three proteolytic enzymes, chymotrypsin, thermolysin and proteinase K, that are known to cleave peptide bonds involving F amino acids in the P1 position were tested for their ability to selectively hydrolyse Fmoc-F↓RGD bond^15. […] Surfaces were incubated at 37° C. for 2 hours in enzyme solution (concentrations and activities are shown in Table 1) in phosphate buffer and the cleaved products were analysed by HPLC.
Surfaces were rinsed in a known volume (at least 4 ml) of a 50:50 mixture of acetonitrile (ACN) and water. The rinsing solution was kept and added to the enzyme solution that the surface was in. 1 ml of this solution was placed into an HPLC autosampler vial. The HPLC machine (manufactured by Dionex; California, USA) consisted of a P.680 HPLC pump joined to an ASI-100 Automated Sample Injector with a Dionex UVD17OU detector. The column was an EC 250/4.6 Nucleosil 100-5 C18, with an internal diameter of 4.6 mm and a column length of 250 mm containing particles of 5 μm in diameter. 100 μl was injected into the HPLC column at the start of each run and a buffer gradient run through the column, buffer A was 99.9% water and 0.1% TFA, buffer B was 99.9% ACN and 0.1% TFA. For quantification, three samples of each surface were produced and repeated three times.

[1] abbreviates: 37° C., 2 hours in enzyme solution, 100% = 4.08 nmol maximum Fmoc-peptide hydrolysed, n=9.

Consider Chymotrypsin, for which, under setting [1], the “Fmoc-F-OH (%)” value came to 42 ± 1.8% and the “Fmoc-FR-OH (%)” value was found to be 7.5 ± 1.4%. In addition, the “cleavage and selectivity for Fmoc-F↓RGD versus Fmoc-FR↓GD” value (HPLC) is on record as “performing best”.
